# Data published in patent US9643999B2 (Bristol-Myers Squibb Company, priority 2012, dated 2017).
# Like-named read-outs stand apart in the source and are kept apart here.
# What was measured:
# [1] = system: HCV genotype 1b replicon; assay: HCV replicon luciferase reporter assay, genotype 1b (LE_1b); type: cell-based; details: Hepatitis C virus, 72 h, HUH-7 cells, genotype 1b (Con1) replicon, 3 days incubation, Renilla luciferase
# Text: An HCV replicon whole cell system was established as described by Lohmann V, Korner F, Koch J, Herian U, Theilmann L, Bartenschlager R., Science 285(5424):110-3 (1999) and modified to introduce a luciferase reporter, as first described by Krieger et al (Krieger N, Lohmann V, and Bartenschlager R, J. Virol. 75(10):4614-4624 (2001)). cDNA encoding a humanized form of the Renilla luciferase gene and a linker sequence fused directly to the 3′-end of the luciferase gene were introduced into the replicon construct using an Asc1 restriction site located in core, directly upstream of the neomycin marker gene. The adaptive mutation at position 1179 (serine to isoleucine) was also introduced (Blight K J, Kolykhalov, A A, Rice, C M, Science 290(5498):1972-1974). A stable cell line constitutively expressing this HCV replicon construct was generated by first linearizing plasmid DNAs with ScaI. RNA transcripts were synthesized in vitro using the T7 MegaScript transcription kit (Ambion, Austin, Tex.) according to manufacturer's directions. In vitro transcripts of the cDNA were transfected into the human hepatoma cell line, HUH-7. […] Resulting cell lines were characterized for positive and negative strand RNA production and protein production over time. […]
# (§1) HCV replicon luciferase assays were developed to monitor the inhibitory effects of compounds described in the disclosure on HCV genotypes 1a and 1b viral replication. HUH-7 cells, constitutively expressing the HCV replicon, were grown in Dulbecco's Modified Eagle Media (DMEM) (Gibco-BRL) containing 10% Fetal calf serum (FCS) (Sigma) and 1 mg/mL G418 (Gibco-BRL). Compounds were serially diluted 3 folds in DMSO for a twenty-point titration and subsequently transferred to sterile 384-well tissue-culture treated plates (Corning cat #3571). The plates were then seeded with 50 μL of cells at a density of 3.0×10^3 cells/well in DMEM containing 4% FCS (final DMSO concentration at 0.5%). After 3 days incubation at 37° C., cells were analyzed for Renilla Luciferase activity using the EnduRen as substrate (Promega cat #E6485). The EnduRen substrate was diluted in DMEM and then added to the plates to a final concentration of 7.5 μM. The plates were incubated for 2 hrs at 37° C. and then read immediately for 30 seconds with Viewlux Imager (PerkinElmer) using a luminescence program. To assess cytotoxicity of compounds, CC50 values were generated by multiplexing the EnduRen-containing plates with Cell Titer-Blue (Promega, cat #G8082). Cell-Titer Blue (3 μL) was added to each well and incubated for 8 hrs at 37° C. The fluorescence signal from each well was read, with an excitation wavelength at 525/10 nm and an emission wavelength of 598/10 nm, using the Viewlux Imager.
# (§2) The EC50 values for compounds were calculated by using a four-parameter logistic equation: y=A+((B−A)/(1+((C/x)^D))), where A and B denotes minimal and maximal % inhibition, respectively, C is the EC50, D is the hill slope and x represents compound concentration.
# [2] = system: HCV genotype 1a replicon; assay: HCV replicon luciferase reporter assay, genotype 1a (LE_1a); type: cell-based; details: Hepatitis C virus, 72 h, HUH-7 cells, genotype 1a H77 replicon, 3 days incubation, Renilla luciferase
# Text: An HCV replicon whole cell system was established as described by Lohmann V, Korner F, Koch J, Herian U, Theilmann L, Bartenschlager R., Science 285(5424):110-3 (1999) and modified to introduce a luciferase reporter, as first described by Krieger et al (Krieger N, Lohmann V, and Bartenschlager R, J. Virol. 75(10):4614-4624 (2001)). cDNA encoding a humanized form of the Renilla luciferase gene and a linker sequence fused directly to the 3′-end of the luciferase gene were introduced into the replicon construct using an Asc1 restriction site located in core, directly upstream of the neomycin marker gene. The adaptive mutation at position 1179 (serine to isoleucine) was also introduced (Blight K J, Kolykhalov, A A, Rice, C M, Science 290(5498):1972-1974). A stable cell line constitutively expressing this HCV replicon construct was generated by first linearizing plasmid DNAs with ScaI. RNA transcripts were synthesized in vitro using the T7 MegaScript transcription kit (Ambion, Austin, Tex.) according to manufacturer's directions. In vitro transcripts of the cDNA were transfected into the human hepatoma cell line, HUH-7. […] Resulting cell lines were characterized for positive and negative strand RNA production and protein production over time.
# A stable HCV replicon luciferase reporter cell line representing the genotype 1a H77 strain (Yanagi M, Purcell R H, Emerson S U, et al. Transcripts from a single full-length cDNA clone of hepatitis C virus are infectious when directly transfected into the liver of a chimpanzee. Proc Natl Acad Sci USA 1997; 94(16):8738-8743) was generated as described previously for the genotype 1b(Con1) replicon luciferase cell line. The replicon construct was modified by introducing mutations were introduced into the genes encoding the NS3 helicase domain (proline replaced by leucine at position 1496) and NS5A (serine to isoleucine at position 2204) to improve replication in cell culture.
# as §1, §2
Structure (SMILES),EC50 ([1]; read-out: LE_1b (EC50)),"EC50 ([1]; read-out: LE_1b (EC50, range))",EC50 ([2]; read-out: LE_1a (EC50)),"EC50 ([2]; read-out: LE_1a (EC50, range))"
CC[C@@H]1C[C@H](C)CC/C=C\[C@@H]2C[C@@]2(C(=O)NS(=O)(=O)C2(C)CC2)NC(=O)[C@@H]2C[C@@H](Oc3cc(-n4ccc(C(C)C)n4)nc4cc(OC)ccc34)CN2C(=O)[C@H]1NC(=O)OC(C)(C)C [Compound 4294],0.89 nM,0.51 to 1 nM,0.85 nM,0.51 to 1 nM
COc1ccc2c(O[C@@H]3C[C@H]4C(=O)N[C@]5(C(=O)NS(=O)(=O)C6(C)CC6)C[C@H]5/C=C\CC[C@@H](C)C[C@@H](C)[C@H](NC(=O)OC(C)(C)C(F)(F)F)C(=O)N4C3)cc(-n3ccc(C(C)C)n3)nc2c1 [Compound 4299],–,0.51 to 1 nM,–,0.51 to 1 nM
COc1ccc2c(O[C@@H]3C[C@H]4C(=O)N[C@]5(C(=O)NS(=O)(=O)C6(C)CC6)C[C@H]5/C=C\CC[C@@H](C)C[C@@H](C)[C@H](NC(=O)OC(C)(C)C(F)(F)F)C(=O)N4C3)cc(-n3ccc(C(F)(F)F)n3)nc2c1 [Compound 4301],–,0.51 to 1 nM,–,0.51 to 1 nM
COc1ccc2nc(O[C@@H]3C[C@H]4C(=O)N[C@]5(C(=O)NS(=O)(=O)C6(C)CC6)C[C@H]5/C=C\CC[C@@H](C)C[C@@H](C)[C@H](NC(=O)OC(C)(C)C)C(=O)N4C3)c(C3CC3)nc2c1 [Compound 4303],–,1.01 to 5 nM,–,1.01 to 5 nM
CC[C@@H]1C[C@H](C)CC/C=C\[C@@H]2C[C@@]2(C(=O)NS(=O)(=O)C2CC2)NC(=O)[C@@H]2C[C@@H](Oc3nc4ccc(OC)cc4nc3C3CC3)CN2C(=O)[C@H]1NC(=O)OC(C)(C)C [Compound 4306],–,5.01 to 35 nM,–,5.01 to 35 nM
CC[C@@H]1C[C@H](C)CC/C=C\[C@@H]2C[C@@]2(C(=O)NS(=O)(=O)C2CC2)NC(=O)[C@@H]2C[C@@H](Oc3nc4cc(OC)ccc4nc3C3CC3)CN2C(=O)[C@H]1NC(=O)OC(C)(C)C [Compound 4307],–,1.01 to 5 nM,–,1.01 to 5 nM
CC[C@@H]1C[C@H](C)CC/C=C\[C@@H]2C[C@@]2(C(=O)NS(=O)(=O)C2CC2)NC(=O)[C@@H]2C[C@@H](Oc3nc4ccc(OC)cc4nc3C3CC3)CN2C(=O)[C@H]1NC(=O)OC(C)(C)C(F)(F)F [Compound 4308],–,5.01 to 35 nM,–,5.01 to 35 nM
CC[C@@H]1C[C@H](C)CC/C=C\[C@@H]2C[C@@]2(C(=O)NS(=O)(=O)C2CC2)NC(=O)[C@@H]2C[C@@H](Oc3nc4cc(OC)ccc4nc3C3CC3)CN2C(=O)[C@H]1NC(=O)OC(C)(C)C(F)(F)F [Compound 4309],2.31 nM,1.01 to 5 nM,3.51 nM,1.01 to 5 nM
